Consider three compounds from publication PMC11431963 (International Journal of Molecular Sciences, 2024).

Usually AUC stands for concentration integrated over time. Low values mean low exposure, high ones high exposure.

The target in one data set is T1, murine Abcg2 (Mus musculus, UniProt Q7TMS5).
T1 sequence (Q7TMS5 1-657): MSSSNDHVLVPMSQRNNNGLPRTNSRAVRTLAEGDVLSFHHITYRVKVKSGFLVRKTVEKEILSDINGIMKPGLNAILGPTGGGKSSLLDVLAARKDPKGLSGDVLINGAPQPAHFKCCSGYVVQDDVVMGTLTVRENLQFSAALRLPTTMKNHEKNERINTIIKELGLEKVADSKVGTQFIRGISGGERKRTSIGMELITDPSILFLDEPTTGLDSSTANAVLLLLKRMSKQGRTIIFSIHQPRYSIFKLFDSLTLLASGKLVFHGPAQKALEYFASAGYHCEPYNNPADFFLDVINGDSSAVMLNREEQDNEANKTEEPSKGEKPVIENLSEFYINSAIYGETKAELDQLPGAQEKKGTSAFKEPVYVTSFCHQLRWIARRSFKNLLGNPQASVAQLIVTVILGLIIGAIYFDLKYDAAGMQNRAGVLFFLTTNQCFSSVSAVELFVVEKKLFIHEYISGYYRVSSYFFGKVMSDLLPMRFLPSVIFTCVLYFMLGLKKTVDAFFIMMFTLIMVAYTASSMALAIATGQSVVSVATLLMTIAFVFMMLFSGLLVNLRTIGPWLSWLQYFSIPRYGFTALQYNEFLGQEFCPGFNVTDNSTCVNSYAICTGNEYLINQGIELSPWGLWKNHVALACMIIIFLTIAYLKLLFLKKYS
Put plainly: Transepithelial transport assay in MDCK-II cells transduced with murine Abcg2. The class given is in vitro ADME. How it is done:
(§1) For in vitro assays, the polarized cell line Madin-Darby canine kidney (MDCK-II) and their murine Abcg2 and human ABCG2 transduced subclones, which were previously generated and provided by A.H. Schinkel from the Netherlands Cancer Institute (Amsterdam, The Netherlands), were used.
(§2) Transcellular transport assays were performed as previously described, with minor modifications (Figure S1). Transduced MDCK-II cells were seeded as a monolayer on microporous membrane filters (3.0 μm pore size, 24 mm diameter; Transwell® 3414; Costar, Corning, NY, USA) at a density of 1.0 x 10^6 cells/well. Cells were grown for three days with daily medium replacement.
(§3) During the experiment, quality controls were performed in terms of monolayer tightness at the beginning and end of the assay using Millicell®ERS (Millipore, Burlington, MA, USA), and monolayer confluence was tested at the end of the experiment by means of Lucifer Yellow permeability. Transport proficiency was simultaneously checked by testing a typical ABCG2 substrate (danofloxacin 10 μM) (Table S1).
(§4) (to verify that the potential transport was specifically due to ABCG2). […] This volume was replaced with fresh Opti-MEM medium. Finally, at t = 4 h 600 µL aliquots were taken from the apical and basal compartments of each well. All samples were stored at −20 °C until being analyzed by high-performance liquid chromatography (HPLC), as described below.
(§5) The relative efflux transport ratio was calculated as the basal to apical directed transport percentage divided by the apical to basal directed transport percentage at 4 h.
(§6) Tissue samples were homogenized with a mixture of 50% water:50% methanol with 0.5% HCl; 1 mL of solution per 0.1 g of organ was used. To each 100 µL of plasma, milk or tissue homogenate, 10 µL of an albendazole-2-aminosulfone solution (100 µg/mL) was added as an internal standard and 400 µL of acetonitrile was also added in order to precipitate proteins. After 10 min of being horizontally vortexed, samples were centrifuged at 10,500× g for 10 min at 4 °C. Supernatants were evaporated to dryness at 40 °C under a stream of nitrogen. Samples were reconstituted in 100 µL of cold methanol and injected into the HPLC system. However, samples for in vitro assays were directly injected into the HPLC system.
(§7) The chromatographic system used for sample analysis consisted of a Waters 2695 separation module and a Waters 2998 UV photodiode array detector. Separation of samples was performed on an analytical reversed-phase column (5 µm particle size, 250 × 4.6 mm, EVO C18 100 Å, Phenomenex®, Torrance, CA, USA). The mobile phase used for in vitro samples was trifluoroacetic acid 0.04%:methanol (40:60), whereas for in vivo samples, it was ammonium acetate 25 mM (pH 5):acetonitrile (85:15). In both cases, the flow rate was set to 1.00 mL/min and UV absorbance was measured at 260.3 nm.

The nature of data set [1]: Transepithelial transport assay in parental MDCK-II cells. In kind it is in vitro ADME, canine. Conditions: dog, danofloxacin 10 µM, positive control, read-out: Transport ratio (BA/AB). On the procedure:
as §1, §2, §3, §4
(§8) Lumichrome appearance in the opposite compartment is presented as the fraction of total compound added at the beginning of the experiment and expressed as percentage. The relative efflux transport ratio was calculated as the basal to apical directed transport percentage divided by the apical to basal directed transport percentage at 4 h.

Another data set deals with parental MDCK-II cells. The data set is described as above. In kind it is in vitro ADME, canine. The settings on record: danofloxacin 10 µM, positive control, 4 h. On the procedure:
as §1, §2, §3, §4, §8

Data set [2] addresses T2, Abcg2 (BCRP) (Mus musculus, UniProt Q7TMS5).
T2 sequence (Q7TMS5 1-657): T1 sequence (Q7TMS5 1-657)
Put plainly: Transepithelial transport assay in MDCK-II cells transduced with murine Abcg2. The class given is in vitro ADME. The settings on record: mouse; danofloxacin 10 µM, positive control, 4 h, MDCK-II mABCG2; read-out: Transport ratio (BA/AB). On the procedure:
as §1, §2, §3, §4, §5, §6, §7

Data set [3] concerns the target T3, ABCG2 (BCRP) (Homo sapiens, UniProt Q9UNQ0).
T3 sequence (Q9UNQ0 1-655): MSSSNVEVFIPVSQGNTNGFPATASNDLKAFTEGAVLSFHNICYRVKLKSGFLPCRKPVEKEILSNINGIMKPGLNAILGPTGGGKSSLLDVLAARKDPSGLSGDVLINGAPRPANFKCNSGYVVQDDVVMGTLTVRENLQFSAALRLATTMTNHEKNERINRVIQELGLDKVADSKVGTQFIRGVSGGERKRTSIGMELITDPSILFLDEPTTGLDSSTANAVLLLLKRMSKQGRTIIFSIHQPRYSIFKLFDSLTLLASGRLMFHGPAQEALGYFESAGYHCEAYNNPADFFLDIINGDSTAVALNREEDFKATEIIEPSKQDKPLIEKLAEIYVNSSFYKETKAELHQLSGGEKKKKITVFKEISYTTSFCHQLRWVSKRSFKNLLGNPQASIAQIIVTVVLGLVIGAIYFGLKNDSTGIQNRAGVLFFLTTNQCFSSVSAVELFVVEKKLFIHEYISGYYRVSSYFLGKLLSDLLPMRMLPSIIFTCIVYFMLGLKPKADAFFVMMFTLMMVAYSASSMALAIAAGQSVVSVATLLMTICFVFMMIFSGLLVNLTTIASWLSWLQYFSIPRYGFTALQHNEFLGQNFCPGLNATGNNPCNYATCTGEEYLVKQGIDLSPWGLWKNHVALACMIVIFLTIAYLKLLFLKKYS
Put plainly: Transepithelial transport assay in MDCK-II cells transduced with human ABCG2. In kind it is in vitro ADME. Conditions: human; danofloxacin 10 µM, positive control, 4 h, MDCK-II hABCG2; read-out: Transport ratio (BA/AB). How it is done:
as §1, §2, §3, §4, §5, §6
(§9) The chromatographic system used for sample analysis consisted of a Waters 2695 separation module and a Waters 2998 UV photodiode array detector. Separation of samples was performed on an analytical reversed-phase column (5 µm particle size, 250 × 4.6 mm, EVO C18 100 Å, Phenomenex®, Torrance, CA, USA). […] In both cases, the flow rate was set to 1.00 mL/min and UV absorbance was measured at 260.3 nm.

The target of a further data set is T4, human ABCG2 (Homo sapiens, UniProt Q9UNQ0).
T4 sequence (Q9UNQ0 1-655): T3 sequence (Q9UNQ0 1-655)
Described as above. In kind it is in vitro ADME. How it is done: as §1, §2, §3, §4, §5, §6, §9

Data set [4] in a line: Plasma levels in wild-type and Abcg2-/- male mice after intraperitoneal administration. Conditions: for concentration at 45 min / concentration at 60 min: Plasma concentration.
From the text: (§10) Animals were handled according to institutional and ARRIVE guidelines complying with European legislation (2010/63/EU). Experimental procedures were approved by the Animal Care and Use Committee of the University of León and the Junta de Castilla y León (ULE_010_2021). Abcg2^-/- and wild-type mice were used, all of >99% FVB/N genetic background, generated and kindly supplied by A. H. Schinkel (The Netherlands Cancer Institute).
(§11) All animals, which were aged from 9 to 14 weeks and weighed 30 g, were kept in a temperature-controlled environment with a cycle of 12 h of light and 12 h of darkness and received a standard diet and water ad libitum.
(§12) Blood samples were collected at different time points (5, 10, 20, 30, 45, 60, 90 and 120 min) by cardiac puncture under anesthesia with isoflurane. Organs were harvested at the 60 min time point. All animals were euthanized by cervical dislocation at the end of the experimental procedure. Heparinized blood samples were centrifuged immediately at 3000× g for 15 min. Plasma and organs were stored at −20 °C until HPLC analysis. Three to ten animals were used for each time point.
as §6, §7

Data set [5] in a line: Tissue distribution in wild-type and Abcg2-/- male mice. Conditions: 10 mg/kg intraperitoneal; for concentration at 60 min: male, FVB/N, mouse, in vivo, ip, 10 mg/kg.
From the text: as §10, §11, §12, §6, §7

The next data set can be described thus: in vivo. Conditions: female, FVB/N, mouse, ip, 10 mg/kg, 10 mg/kg intraperitoneal.
From the text: as §10, §11
Pups of approximately 10 days old were separated from their mothers four hours before the onset of the experiment. […] Milk secretion was stimulated by oxytocin (200 μL of a 1 UI/mL solution), subcutaneously injected to lactating mice 10 min before sample collection. […] Animals were euthanized by cervical dislocation at the end of the experiment. Four to five animals were used for each group.
Heparinized blood samples were centrifuged immediately at 3000× g for 15 min to obtain plasma. Milk and plasma were also stored at −20 °C until HPLC analysis.
as §6, §7

Data set [6] relates to non-small-cell lung cancer (NSCLC) cell lines. Conditions: p53-dependent mechanisms; cited from earlier work.
In the next data set the test system is HepG2. The settings on record: liver cancer cell line HepG2; cited from earlier work.
The subject of the next data set is MCF-7. The settings on record: breast cancer cell line MCF-7; cited from earlier work.
A further data set relates to Colo-205. The settings on record: colorectal cancer cell line Colo-205; cited from earlier work.
The mark [7] stands for this setting: danofloxacin 10 µM, positive control, 4 h, MDCK-II mABCG2.
The mark [8] stands for this setting: danofloxacin 10 µM, positive control, 4 h, MDCK-II hABCG2.
Setting [9] is: male, FVB/N, mouse, in vivo, ip, 10 mg/kg, Abcg2-/- male mice, 10 mg/kg intraperitoneal.
Setting [10] is: male, FVB/N, mouse, in vivo, ip, 10 mg/kg, wild-type male mice, 10 mg/kg intraperitoneal.

For `COc1ccc2c3c([nH]c2c1)[C@H](CC(C)C)N1C(=O)[C@H](CCC(=O)OC(C)(C)C)NC(=O)[C@@H]1C3` [Ko143], the “Inhibition of ABCG2-mediated transport of lumichrome” value on murine Abcg2 (Ko143 1 µM, lumichrome 10 µM, murine Abcg2 subclone) is recorded as “completely inhibited”.
In the case of `CN1C[C@@H]2C[C@H]1CN2c1cc2c(cc1F)c(=O)c(C(=O)O)cn2C1CC1` [danofloxacin], the figures for the efflux ratio at 4 h, 10 µM (in [1]; on Abcg2 (BCRP) [2]; on ABCG2 (BCRP) [3]) were 0.96 ± 0.08, 9.24 ± 2.59 and 2.04 ± 0.57, respectively. The “AB transport (%)” value is 22.84 ± 2.99% with parental MDCK-II cells, 5.30 ± 1.97% at murine Abcg2 (setting [7]) and 17.22 ± 2.98% at human ABCG2 (setting [8]). Further, the results for the “BA transport (%)” value with parental MDCK-II cells, at murine Abcg2 (setting [7]) and on human ABCG2 (setting [8]) were 21.82 ± 1.79%, 45.77 ± 6.49% and 33.94 ± 4.07%, respectively.
As for `Cc1cc2nc3[nH]c(=O)[nH]c(=O)c3nc2cc1C` [lumichrome], the “In vitro transport by the transporter (substrate)” value at murine Abcg2 (lumichrome 10 µM, murine variant) is reported as “efficiently transported”; on human ABCG2 (lumichrome 10 µM, human variant), “efficiently transported”. Also, the “Plasma AUC 20–120 min” value in data set [4] (Abcg2-/- male mice, 10 mg/kg intraperitoneal) came out at 1290 ± 110 ng·h/mL. The compound also registered an exposure (AUC) in data set [4] (male, FVB/N, mouse, in vivo, ip, 10 mg/kg) of 720 ± 50 ng·h/mL. Also, the concentration at 45 min came to 1020 ± 260 ng/mL in data set [4] (setting [9]) and 390 ± 240 ng/mL in data set [4] (setting [10]). For the same compound, the concentration at 60 min turned out to be 850 ± 500 ng/mL in [4] (setting [9]); 400 ± 130 ng/mL in data set [4] (setting [10]); 340 ± 120 ng/mL in data set [5] (Concentration in liver, Abcg2-/- male mice); 150 ± 70 ng/mL in data set [5] (Concentration in liver, wild-type male mice); 310 ± 110 ng/mL in [5] (Concentration in small intestine content, Abcg2-/- male mice); 850 ± 350 ng/mL in data set [5] (Concentration in small intestine content, wild-type male mice). The concentration at 60 min in data set [5] (Concentration in testis, Abcg2-/- male mice) worked out at 180 ± 50 ng/mL; in data set [5] (Concentration in testis, wild-type male mice), 80 ± 60 ng/mL. In [5] (male mice, 60 min), the “Tissue distribution (liver, kidney, small intestine, small intestine content, spleen, brain, testis)” value is given as “widely distributed in all organs analyzed”. The concentration at 30 min in the data set “in vivo” (Milk concentration, Abcg2-/- lactating female mice) stood at 430 ± 180 ng/mL; in the data set “in vivo” (Milk concentration, wild-type lactating female mice), 1750 ± 730 ng/mL; in the data set “in vivo” (Plasma concentration, Abcg2-/- lactating female mice), 280 ± 100 ng/mL; in “in vivo” (Plasma concentration, wild-type lactating female mice) it was 310 ± 60 ng/mL. Besides, the “Concentration suppressing growth and inducing apoptosis” value in data set [6] is listed as “above 25 µM”. Besides, the “Concentration showing significant cytotoxic activity” value with HepG2, in the data set on MCF-7 and in the data set on Colo-205 was “higher than 40 µM” each time.
